Test results reported in US8324250B2 (Hoffmann-La Roche Inc., priority 2009, dated 2012).

Molecular target: T1, recombinant human NK3 receptor (Homo sapiens, UniProt P29371)
T1 construct: expressed in transfected cells; host or cells: HEK293 cells (transient expression), membranes
T1 sequence (P29371 1-465): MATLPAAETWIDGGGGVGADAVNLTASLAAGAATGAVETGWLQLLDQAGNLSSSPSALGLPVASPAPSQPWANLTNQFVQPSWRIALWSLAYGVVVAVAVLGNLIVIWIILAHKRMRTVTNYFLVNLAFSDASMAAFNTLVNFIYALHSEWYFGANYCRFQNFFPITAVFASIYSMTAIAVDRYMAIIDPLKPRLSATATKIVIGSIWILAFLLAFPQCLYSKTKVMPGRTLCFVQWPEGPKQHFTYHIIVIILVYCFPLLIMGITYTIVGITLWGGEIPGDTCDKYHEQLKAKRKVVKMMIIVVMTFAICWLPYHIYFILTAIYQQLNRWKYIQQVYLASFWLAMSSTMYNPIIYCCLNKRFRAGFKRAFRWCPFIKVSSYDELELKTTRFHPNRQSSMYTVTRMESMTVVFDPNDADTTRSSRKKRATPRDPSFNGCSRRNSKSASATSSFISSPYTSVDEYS
Assay: [3H]SR142801 competition binding assay
Conditions: membranes from HEK293 cells transiently expressing recombinant human NK3 receptor; [3H]SR142801 radioligand; 75 min at RT; Ki by Cheng-Prussoff; read-out: Data Ki (hNK-3 receptor affinity)
How it was run: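 Membranes from HEK293 cells transiently expressing the receptor, 5 μg protein/well, in 50 mM Tris-HCl pH 7.4 with 4 mM MnCl2, 1 μM phosphoramidon, 0.1% BSA; nonspecific binding defined with 10 μM SB222200. Filtration and scintillation counting; IC50 from Hill fit, Ki by Cheng-Prussoff using saturation-derived KD, duplicates.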

Structure (SMILES)	Ki [nM]
O=C(c1ccc(-c2ccc(F)cc2)cc1)N1CCC(C(=O)NC2(c3ccc(F)cc3)CC2)(c2ccc(F)cc2)CC1 [Example 135, 1-(4′-Fluoro-biphenyl-4-carbonyl)-4-(4-fluoro-phenyl)-piperidine-4-carboxylic acid [1-(4-fluoro-phenyl)-cyclopropyl]-amide]	26.7
O=C(c1ccc(-c2ccc(F)cc2)cc1)N1CCC(C(=O)NCc2ccc(F)cc2)(c2ccc(F)cc2)CC1 [Example 136, 1-(4′-Fluoro-biphenyl-4-carbonyl)-4-(4-fluoro-phenyl)-piperidine-4-carboxylic acid 4-fluoro-benzylamide]	54.9
O=C(c1ccc(-c2ccc(F)cc2)cc1)N1CCC(C(=O)N[C@@H](CO)c2ccccc2)(c2ccc(F)cc2)CC1 [Example 140, 1-(4′-Fluoro-biphenyl-4-carbonyl)-4-(4-fluoro-phenyl)-piperidine-4-carboxylic acid ((R)-2-hydroxy-1-phenyl-ethyl)-amide]	7.8
O=C(c1ccc(-c2ccc(F)cc2)cc1)N1CCC(C(=O)NCC2CCCCC2)(c2ccc(F)cc2)CC1 [Example 142, 1-(4′-Fluoro-biphenyl-4-carbonyl)-4-(4-fluoro-phenyl)-piperidine-4-carboxylic acid cyclohexylmethyl-amide]	38.2
CC(C)C(NC(=O)C1(c2ccc(F)cc2)CCN(C(=O)c2ccc(-c3ccc(F)cc3)cc2)CC1)c1ccccc1 (stereo not shown) [Example 143, 1-(4′-Fluoro-biphenyl-4-carbonyl)-4-(4-fluoro-phenyl)-piperidine-4-carboxylic acid (2-methyl-1-phenyl-propyl)-amide]	6.9
CC(C)C(NC(=O)C1(c2ccc(F)cc2)CCN(C(=O)c2ccc(-c3ccc(F)cc3)cc2)CC1)c1ccc(F)cc1 (stereo not shown) [Example 144, 1-(4′-Fluoro-biphenyl-carbonyl)-4-(4-fluoro-phenyl)-piperidne-4-carboxylic acid [1-(4-fluoro-phenyl)-2-methyl-propyl]-amide]	10.9
O=C(c1ccc(-c2ccc(F)cc2)cc1)N1CCC(C(=O)NC(c2ccccc2)C(F)(F)F)(c2ccc(F)cc2)CC1 (stereo not shown) [Example 145, 1-(4′-Fluoro-biphenyl-4-carbonyl)-4-(4-fluoro-phenyl)-piperidine-4-carboxylic acid (2,2,2-trifluoro-1-phenyl-ethyl)-amide]	36.4
O=C(c1ccc(-c2ccc(F)cc2)cc1)N1CCC(C(=O)NC(c2ccc(F)cc2)C(F)(F)F)(c2ccc(F)cc2)CC1 (stereo not shown) [Example 146, 1-(4′-Fluoro-biphenyl-4-carbonyl)-4-(4-fluoro-phenyl)-piperidine-4-carboxylic acid [2,2,2-trifluoro-1-(4-fluoro-phenyl)-ethyl]-amide]	36
O=C(c1ccc(-c2ccc(F)cc2)cc1)N1CCC(C(=O)NC(c2ccccc2)C2CC2)(c2ccc(F)cc2)CC1 (stereo not shown) [Example 147, 1-(4′-Fluoro-biphenyl-4-carbonyl)-4-(4-fluoro-phenyl)-piperidine-4-carboxylic acid (cyclopropyl-phenyl-methyl)-amide]	17.6
O=C(c1ccc(-c2ccc(F)cc2)cc1)N1CCC(C(=O)NC(CC2CC2)c2ccccc2)(c2ccc(F)cc2)CC1 (stereo not shown) [Example 148, 1-(4′-Fluoro-biphenyl-4-carbonyl)-4-(4-fluoro-phenyl)-piperidine-4-carboxylic acid (2-cyclopropyl-1-phenyl-ethyl)-amide]	5.8
O=C(c1ccc(-c2ccc(F)cc2)cc1)N1CCC(C(=O)N[C@@H](CO)c2ccc(F)cc2)(c2ccc(F)cc2)CC1 [Example 151, 1-(4′-Fluoro-biphenyl-4-carbonyl)-4-(4-fluoro-phenyl)-piperidine-4-carboxylic acid [(R)-1-(4-fluoro-phenyl)-2-hydroxy-ethyl]-amide]	11.5
CC(C)C(NC(=O)C1(c2ccc(F)cc2)CCN(C(=O)C2CCN(c3ccc(C#N)cn3)CC2)CC1)c1ccc(F)cc1 (stereo not shown) [Example 153, 1-(5′-Cyano-3,4,5,6-tetrahydro-2H-[1,2′]bipyridinyl-4-carbonyl)-4-(4-fluoro-phenyl)-piperidine-4-carboxylic acid [1-(4-fluoro-phenyl)-2-methyl-propyl]-amide]	38
N#Cc1ccc(N2CCC(C(=O)N3CCC(C(=O)NC(c4ccc(F)cc4)C(F)(F)F)(c4ccc(F)cc4)CC3)CC2)nc1 (stereo not shown) [Example 154, 1-(5′-Cyano-3,4,5,6-tetrahydro-2H-[1,2′]bipyridinyl-4-carbonyl)-4-(4-fluoro-phenyl)-piperidine-4-carboxylic acid [2,2,2-trifluoro-1-(4-fluoro-phenyl)-ethyl]-amide]	75
C[C@H](NC(=O)C1(c2ccc(F)cc2)CCN(C(=O)C2CCN(c3ccc(C#N)cn3)CC2)CC1)c1cccc(F)c1 [Example 155, 1-(5′-Cyano-3,4,5,6-tetrahydro-2H-[1,2′]bipyridinyl-4-carbonyl)-4-(4-fluoro-phenyl)-piperidine-4-carboxylic acid [(S)-1-(3-fluoro-phenyl)-ethyl]-amide]	75
C[C@H](NC(=O)C1(c2ccc(F)cc2)CCN(C(=O)C2CCN(c3ccc(C#N)cn3)CC2)CC1)c1ccc(F)cc1 [Example 156, 1-(5′-Cyano-3,4,5,6-tetrahydro-2H-[1,2′]bipyridinyl-4-carbonyl)-4-(4-fluoro-phenyl)-piperidine-4-carboxylic acid [(S)-1-(4-fluoro-phenyl)-ethyl]-amide]	87
Cc1noc(-c2ccc(C(=O)N3CCC(C(=O)NC4(c5ccc(F)cc5)CC4)(c4ccc(F)cc4)CC3)cc2)n1 [Example 157, 4-(4-Fluoro-phenyl)-1-[4-(3-methyl-[1,2,4]oxadiazol-5-yl)-benzoyl]-piperidine-4-carboxylic acid [1-(4-fluoro-phenyl)-cyclopropyl]-amide]	9.4
Cc1noc(-c2ccc(C(=O)N3CCC(C(=O)NC(c4ccc(F)cc4)C(C)C)(c4ccc(F)cc4)CC3)cc2)n1 (stereo not shown) [Example 158, 4-(4-Fluoro-phenyl)-1-[4-(3-methyl-[1,2,4]oxadiazol-5-yl)-benzoyl]-piperidine-4-carboxylic acid [1-(4-fluoro-phenyl)-2-methyl-propyl]-amide]	11
CCN(NC(=O)C1(c2ccc(F)cc2)CCN(C(=O)c2ccc(-c3nc(C)no3)cc2)CC1)c1ccc(F)cc1 [Example 160, 4-(4-Fluoro-phenyl)-1-[4-(3-methyl-[1,2,4]oxodiazol-5-yl)-benzoyl]-piperidine-4-carboxylic acid N′-ethyl-#N!′-(4-fluoro-phenyl)-hydrazide]	92
Cc1noc(-c2ccc(C(=O)N3CCC(C(=O)N[C@@H](C)c4cccc(F)c4)(c4ccc(F)cc4)CC3)cc2)n1 [Example 161, 4-(4-Fluoro-phenyl)-1-[4-(3-methyl-[1,2,4]oxadiazol-5-yl)-benzoyl]-piperidine-4-carboxylic acid [(S)-1-(3-fluoro-phenyl)-ethyl]-amide]	4.6
Cc1noc(-c2ccc(C(=O)N3CCC(C(=O)NC(C)c4ccc(F)c(C(F)(F)F)c4)(c4ccc(F)cc4)CC3)cc2)n1 (stereo not shown) [Example 162, 4-(4-Fluoro-phenyl)-1-[4-(3-methyl-[1,2,4]oxadiazol-5-yl)-benzoyl]-piperidine-4-carboxylic acid [1-(4-fluoro-3-trifluoromethyl-phenyl)-ethyl]-amide]	75
Cc1nc(-c2ccc(C(=O)N3CCC(C(=O)NC4(c5ccc(F)cc5)CC4)(c4ccc(F)cc4)CC3)cc2)no1 [Example 163, 4-(4-Fluoro-phenyl)-1-[4-(5-methyl-[1,2,4]oxadiazol-3-yl)-benzoyl]-piperidine-4-carboxylic acid [1-(4-fluoro-phenyl)-cyclopropyl]-amide]	41
Cc1nc(-c2ccc(C(=O)N3CCC(C(=O)NC(c4ccc(F)cc4)C(C)C)(c4ccc(F)cc4)CC3)cc2)no1 (stereo not shown) [Example 164, 4-(4-Fluoro-phenyl)-1-[4-(5-methyl-[1,2,4]oxadiazol-3-yl)-benzoyl]-piperidne-4-carboxylic acid [1-(4-fluoro-phenyl)-2-methyl-propyl]-amide]	12
Cc1nc(-c2ccc(C(=O)N3CCC(C(=O)NC(c4ccc(F)cc4)C(F)(F)F)(c4ccc(F)cc4)CC3)cc2)no1 (stereo not shown) [Example 165, 4-(4-Fluoro-phenyl)-1-[4-(5-methyl-[1,2,4]oxadiazol-3-yl)-benzoyl]-piperidne-4-carboxylic acid [2,2,2-trifluoro-1-(4-fluoro-phenyl)-ethyl]-amide]	66
Cc1nc(-c2ccc(C(=O)N3CCC(C(=O)N[C@@H](C)c4cccc(F)c4)(c4ccc(F)cc4)CC3)cc2)no1 [Example 167, 4-(4-Fluoro-phenyl)-1-[4-(5-methyl-[1,2,4]oxadiazol-3-yl)-benzoyl]-piperidine-4-carboxylic acid [(S)-1-(3-fluoro-phenyl)-ethyl]-amide]	17
Cc1nc(-c2ccc(C(=O)N3CCC(C(=O)N[C@@H](C)c4ccc(F)cc4)(c4ccc(F)cc4)CC3)cc2)no1 [Example 168, 4-(4-Fluoro-phenyl)-1-[4-(5-methyl-[1,2,4]oxadiazol-3-yl)-benzoyl]-piperidine-4-carboxylic acid [(S)-1-(4-fluoro-phenyl)-ethyl]-amide]	36
